Bridge positions count the residues as written; N and C are the ends. Peptide text beside a SMILES is read from it.
Tests used:
potassium channel Kv1.3 = target: T1, potassium channel Kv1.3 (Homo sapiens, UniProt P22001); assay: whole-cell patch clamp, inhibition of Kv1.3 current in transfected COS-7 cells; assay type: cell-based; conditions: potassium channel Kv1.3 in COS-7 cells, read-out: polypeptide concentrations that inhibit the current by half (IC50 value)
T1 construct: expressed in transfected cells; host or cells: COS-7 cells, selected with 0.8 mg/mL geneticin
Protocol: COS-7 cells were cultured in a DMEM medium containing 10% fetal calf serum, at 37° C, 5% CO2. The recombinant plasmids of potassium channel Kv1.3 were transfected by using a Sofast™ transfection kit, and the transfected cells were selectively cultured in a medium containing 0.8 mg/mL geneticin. The pharmacological activities of scorpion active polypeptides ADMR-011, ADMR-016, ADMR-019, ADMR-023 and ADMR-028 were tested and analyzed by using an instrument of whole-cell patch clamp (EPC-10 dual-channel patch clamp amplifier HEKA, Elektronik, Lambrecht, Germany). The setting of the experimental parameters, the collecting of data, and the applying of stimulus were all controlled by Pulse software (Elektronik, Lambrecht, Germany). The filter of the instrument was set to be 10 kHz (Bessel), and the electrode impedance was 2∼5 MΩ. After the formation of giga-seal (1∼5 GΩ) between the electrode and cell membrane, an automatic c-fast was performed, and the membrane was broken by slightly applying negative pressure, then an automatic c-slow was performed. At a holding potential of -70 mV, depolarizing pulses, incrementing in 10 mV steps, with a step width of 80 ms , were given to stimulate from -60 mV to +50 mV, and the condition of current was observed. The polypeptides ADMR-011, ADMR-016 and ADMR-019 were accurately perfused, which was achieved by MPS-2 (INBIO Inc, Wuhan, China) perfusing system. After dissolving the three scorpion active polypeptides, they were applied by spraying via DAD Drug Application System (ALA), and the tip of the tube for drug application was about 100 µm away from the cell being recorded.
It can be known from Figure 16 to Figure 20 that, the pharmacological activity of ADMR-011 on potassium channel Kvl.3 was 91 pM, the pharmacological activity of ADMR-016 on potassium channel Kvl.3 was 2.58 nM, the pharmacological activity of ADMR-019 on potassium channel Kv1.3 was 1.41 nM, and the pharmacological activity of ADMR-023 and ADMR-028 on potassium channel Kvl.3 were 0.49 nM and 0.65 nM, respectively. Therefore, they are polypeptides with potent activity that are currently found internationally.

Wistar rat EAE model = assay: EAE (multiple sclerosis) model in Wistar rats induced by GPSCH-CFA, clinical scoring; assay type: in vivo; conditions: 100 µg·kg^-1 subcutaneously once every day, x±s, n=10, score 0-5
Description: Experimental animals: female inbred line Wistar rats (6∼8 week old, body weigh 150±10 g) and guinea pigs (300∼400 g, purchased from Wuhan University Laboratory Animal Center) were selected.
Formulating a mixed emulsion of whole spinal cord homogenate - Freund's complete adjuvant (GPSCH-CFA): a guinea pig was executed, and the spinal cord was rapidly removed, and prepared into 50% PBS homogenate by a ultrasonic disruptor (Sonics & Materials Inc, America), which was mixed with equal amount of Freund's complete adjuvant (BCG vaccine 10 mg/ml), and was pushed back and forth with syringes until forming a water-in-oil emulsion.
Wistar rat EAE model induced by EAE: GPSCH-CFA emulsion was injected intradermally into the foot pads of both the hind legs of Wistar rats, or simultaneously injected intradermally about 1×10^10 pertussis vaccine. The rats were weighed every day, and observed for their neurological symptoms. Experimental autoimmune encephalomyelitis appeared after the rats had been raised for 2 weeks.
The rats with experimental autoimmune encephalomyelitis (EAE) were divided into […] groups randomly: normal control group (negative control group), model control group (model rats + normal saline), administration group A (model rats + ADMR-011 polypeptide), administration group B (model rats + ADMR-016 polypeptide), administration group C (model rats + ADMR-019 polypeptide), administration group D (model rats + ADMR-023 polypeptide), and administration group E (model rats + ADMR-028 polypeptide), 10 rats for each group. For the administration groups, polypeptides ADMR-011, ADMR-016, ADMR-019, ADMR-023 and ADMR-028 were injected subcutaneously respectively at a dose of 100 µg·kg^-1, once every day in the morning. For the normal control group and the model control group, equivalent amount of normal saline was injected subcutaneously, and administered continuously. […] The highest clinical score for each animal was recorded, and the average value of them was taken to be the average clinical score.
The scoring criteria were: without any clinical symptom, 0 point; disappearance of tension in the tail, and observable mild awkward gait, 1 point; weakness in both the hind limbs, which can recover after passive body flipping, 2 points; paralysis in both the hind limbs, which can not recover after passive body flipping, 3 points; tetraplegia accompanied by incontinence of urine and feces, 4 points; moribund state or death, 5 points. Table 1. Scores for rats of various experimental groups in the EAE model (-x±s)

rheumatoid arthritis = assay: pristane-induced rheumatoid arthritis in SD rats, joint score and hind foot plantar swelling; assay type: in vivo; parameters: key to Score of joint: clinical score 1-4: 1 joint red/swollen=1 ... severe whole-limb arthritis=4; conditions: x±s, n=10; for Score of joint: arthritis rats, polypeptides 100 µg·kg^-1 (methotrexate 1.75 µg·kg^-1) subcutaneously once every day, score 1-4; for The swelling degree after the inflammation: volume difference of hind foot before and after the modeling
Protocol: […] Female (♀) specific pathogen free (SPF) inbred line SD rats (Wuhan University Laboratory Animal Center), body weight 150±10 g, were selected, and pristane was injected intradermally at the base of the tail of rats in experimental groups at a dose of 0.2 ml/rat, after they were acclimatized in a clean-grade environment for 1 week. Rheumatoid arthritis appeared after the rats were raised for only 2 weeks.
The rats having arthritis were randomized into: normal control group (negative control group), model negative control group (model rat + normal saline), model positive control group (model rat + methotrexate), administration group A (model rat + ADMR-011 polypeptide), administration group B (model rat + ADMR-016 polypeptide), administration group C (model rat + ADMR-019 polypeptide), administration group D (model rat + ADMR-023 polypeptide), and administration group E (model rat + ADMR-028 polypeptide), 10 rats for each group. The administration groups were injected subcutaneously at a dose of 100 µg·kg^-1, once every day in the morning, and administered continuously; the normal control group and the model negative control group were injected subcutaneously with equivalent amount of normal saline; and the model positive control group were injected subcutaneously with methotrexate (MTX) at a dose of 1.75 µg·kg^-1, once every day, and administered continuously.
The highest clinical score for each animal was recorded, and the average value of them was taken to be the average clinical score. The scoring criteria were: one joint of a rat was red and swollen, 1 point; two joints of a rat were red and swollen, 2 points; all the joints of a rat were red and swollen, 3 points; severe arthritis in the entire limb of a rat, 4 points. Table 2. Arthritis scores for rats of various experimental groups (-x±s)
From day 8 of the experiment, the hind foot plantar volume of the rat was measured and recorded every other day for 21 consecutive days, and the swelling degree (mL) was calculated according to the volume difference before and after the modeling. Table 3. The swelling degree of rats in various experimental groups (-x±s)

Kunming mice = assay: toxicity study in mice, single intraperitoneal injection, 7 days observation; assay type: in vivo; conditions: 10 mg/kg intraperitoneally once (100 times the dose for animal model), observed 7 days
Protocol: 18∼20 g Kunming mice were selected, and divided into 4 groups, 8 male mice and 8 female mice for each group. The lyophilized powders of scorpion active polypeptides ADMR-011, ADMR-016, ADMR-019, ADMR-023 and ADMR-028 were dissolved with normal saline respectively, and the 3 groups of mice were injected intraperitoneally once respectively with polypeptide solution at a dose of 10 mg/kg (100 times of the dose for animal model), and the fourth group were injected with equivalent amount of normal saline as control.
After the administration, the respiration, motor and heartbeat in animals of all the groups were all normal, without significant abnormal reaction. 7 days after the administration, all the animals were conducted gross anatomy to observe the volume, color and texture of the main organs (heart, liver, spleen, lung, and kidney), and there was no macroscopic lesion. There were no significant difference between the 3 administration groups and the normal saline group.

T1 sequence (P22001 whole entry): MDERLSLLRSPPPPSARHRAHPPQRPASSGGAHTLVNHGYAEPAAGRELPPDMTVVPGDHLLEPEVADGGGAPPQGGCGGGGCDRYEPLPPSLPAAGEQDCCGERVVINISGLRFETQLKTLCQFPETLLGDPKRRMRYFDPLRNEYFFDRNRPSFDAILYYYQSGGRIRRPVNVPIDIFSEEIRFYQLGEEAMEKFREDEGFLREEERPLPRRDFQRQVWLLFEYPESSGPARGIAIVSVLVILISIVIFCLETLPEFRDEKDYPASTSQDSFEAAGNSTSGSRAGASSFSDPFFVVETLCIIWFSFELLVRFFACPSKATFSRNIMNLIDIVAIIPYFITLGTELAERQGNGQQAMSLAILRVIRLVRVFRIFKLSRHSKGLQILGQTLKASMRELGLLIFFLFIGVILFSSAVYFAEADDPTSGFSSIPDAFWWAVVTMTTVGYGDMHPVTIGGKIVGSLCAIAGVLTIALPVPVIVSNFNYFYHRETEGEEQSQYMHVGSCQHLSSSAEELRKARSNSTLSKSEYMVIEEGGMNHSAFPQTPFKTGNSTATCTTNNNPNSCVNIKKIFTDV

Structure (SMILES)	IC50 (potassium channel Kv1.3)	Average clinical scores (Wistar rat EAE model; 8 d)	Average clinical scores (Wistar rat EAE model; 10 d)	Average clinical scores (Wistar rat EAE model; 12 d)	Average clinical scores (Wistar rat EAE model; 14 d)	Score of joint (rheumatoid arthritis; 10 d)	Score of joint (rheumatoid arthritis; 15 d)	Score of joint (rheumatoid arthritis; 21 d)	The swelling degree after the inflammation (rheumatoid arthritis; d8)	The swelling degree after the inflammation (rheumatoid arthritis; d15)	The swelling degree after the inflammation (rheumatoid arthritis; d22)	The swelling degree after the inflammation (rheumatoid arthritis; d28)	toxicity in mice (Kunming mice)
CC[C@H](C)[C@@H]1NC(=O)CNC(=O)[C@H](CCC(=O)O)NC(=O)[C@@H]2CSSC[C@@H](C(=O)N[C@@H](Cc3ccc(O)cc3)C(=O)N[C@@H](CCCNC(=N)N)C(=O)O)NC(=O)[C@H](C(C)C)NC(=O)[C@@H]3CSSC[C@H](NC(=O)[C@H](CCC(=O)O)NC(=O)[C@H](CO)NC(=O)[C@H](CO)NC(=O)CNC(=O)[C@H](CC(N)=O)NC(=O)[C@@H](NC(=O)[C@H](CCC(=O)O)NC(=O)[C@H](CCCCN)NC(=O)[C@H](CO)NC(=O)[C@@H](NC(=O)[C@H](Cc4ccc(O)cc4)NC(=O)[C@@H](NC(=O)[C@@H](N)CCC(N)=O)[C@@H](C)CC)[C@@H](C)O)CSSC[C@H](NC(=O)[C@H](CCCCN)NC(=O)CNC(=O)[C@H](CO)NC(=O)[C@H](CCCNC(=N)N)NC(=O)[C@H](CCCCN)NC(=O)CNC(=O)[C@H]([C@@H](C)O)NC1=O)C(=O)N[C@@H]([C@@H](C)CC)C(=O)N[C@@H](CC(N)=O)C(=O)N[C@@H](CCCCN)C(=O)N[C@@H](CCCCN)C(=O)N3)C(=O)N[C@@H](Cc1ccc(O)cc1)C(=O)N[C@@H](CO)C(=O)N[C@@H](Cc1c[nH]cn1)C(=O)N2 [ADMR-011] (H-QIYTSKECNGSSECYSHCEGITGKRSGKCINKKCVCYR-OH; disulfide 8-29, 14-34, 18-36 (inferred); N-terminus and C-terminus assumed)	0.091 nM	0.47±0.18	0.75±0.21	0.83±0.35	0.95±0.37	1.63±0.57	2.07±0.65	1.62±0.59	0.041 ± 0.012 mL	0.21 ± 0.06 mL	0.29 ± 0.09 mL	0.24 ± 0.13 mL	no significant toxicity
CC[C@H](C)[C@H](NC(=O)CNC(=O)[C@@H](N)C(C)C)C(=O)N[C@@H](CC(N)=O)C(=O)N[C@H](C(=O)N[C@@H](CCC(N)=O)C(=O)N[C@H]1CSSC[C@@H]2NC(=O)[C@H](CCC(N)=O)NC(=O)CNC(=O)[C@H](Cc3ccccc3)NC(=O)[C@H](CCCNC(=N)N)NC(=O)[C@H](CCSC)NC(=O)CNC(=O)[C@H](C)NC(=O)[C@H](CC(=O)O)NC(=O)[C@H](CCCCN)NC(=O)[C@@H]3CSSC[C@@H](C(=O)N[C@H](C(=O)N4CCC[C@H]4C(=O)N[C@@H](CCCCN)C(=O)O)[C@@H](C)O)NC(=O)[C@H](CC(=O)O)NC(=O)[C@H](CSSC[C@H](NC(=O)[C@H](CCC(N)=O)NC(=O)CNC(=O)[C@H](CO)NC(=O)[C@H]([C@@H](C)O)NC(=O)[C@H](CC(N)=O)NC1=O)C(=O)N[C@@H](CC(C)C)C(=O)N[C@@H](CCCCN)C(=O)N1CCC[C@H]1C(=O)N3)NC(=O)[C@H](CCCCN)NC(=O)CNC(=O)[C@H](CC(N)=O)NC(=O)[C@H]([C@@H](C)CC)NC2=O)C(C)C [ADMR-016] (H-VGINVQCNTSGQCLKPCKDAGMRFGQCINGKCDCTPK-OH; disulfide 7-27, 13-32, 17-34 (inferred); N-terminus and C-terminus assumed)	2.58 nM	0.50±0.23	0.87±0.34	1.31±0.42	1.21±0.49	1.84±0.71	2.24±0.53	1.96±0.62	0.037 ± 0.012 mL	0.25 ± 0.07 mL	0.37 ± 0.08 mL	0.33 ± 0.12 mL	no significant toxicity

From patent EP2653477B1, “SCORPION ACTIVE PEPTIDES AND PREPARATION METHODS AND APPLICATIONS THEREOF” (Wuhan More Biotechnology Co., Ltd., priority 2010, dated 2012)
